Like-named read-outs stand apart in the source and are kept apart here.
Legend:
[1] = test system: TPA induction of ODC; assay: Ornithine decarboxylase (ODC) assay, inhibition of TPA induction of ODC; type: cell-based; conditions: concentration required to inhibit the TPA induction of ODC by 80 percent
[2] = target: T1, RARβ (Homo sapiens, UniProt P10826); assay: Co-transfection assay; type: cell-based; conditions: read-out: RARβ Pot
T1 sequence (P10826 1-448 isoform P10826-2): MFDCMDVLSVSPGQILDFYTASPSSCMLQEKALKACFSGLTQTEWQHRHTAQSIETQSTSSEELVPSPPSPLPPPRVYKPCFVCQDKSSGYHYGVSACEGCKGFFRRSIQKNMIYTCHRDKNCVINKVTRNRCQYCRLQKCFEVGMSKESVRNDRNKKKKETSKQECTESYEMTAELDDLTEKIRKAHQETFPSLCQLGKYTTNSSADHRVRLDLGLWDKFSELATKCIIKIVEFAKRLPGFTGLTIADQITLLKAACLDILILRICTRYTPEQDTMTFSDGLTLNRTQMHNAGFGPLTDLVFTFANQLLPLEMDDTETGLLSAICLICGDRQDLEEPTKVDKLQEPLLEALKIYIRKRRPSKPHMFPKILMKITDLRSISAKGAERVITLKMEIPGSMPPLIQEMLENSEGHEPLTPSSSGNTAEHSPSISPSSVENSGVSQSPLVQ

[3] = target: T2, RXRγ (Mus musculus, UniProt P28705); assay: Co-transfection assay; type: cell-based; conditions: read-out: RXRγ Pot
T2 sequence (P28705 1-463): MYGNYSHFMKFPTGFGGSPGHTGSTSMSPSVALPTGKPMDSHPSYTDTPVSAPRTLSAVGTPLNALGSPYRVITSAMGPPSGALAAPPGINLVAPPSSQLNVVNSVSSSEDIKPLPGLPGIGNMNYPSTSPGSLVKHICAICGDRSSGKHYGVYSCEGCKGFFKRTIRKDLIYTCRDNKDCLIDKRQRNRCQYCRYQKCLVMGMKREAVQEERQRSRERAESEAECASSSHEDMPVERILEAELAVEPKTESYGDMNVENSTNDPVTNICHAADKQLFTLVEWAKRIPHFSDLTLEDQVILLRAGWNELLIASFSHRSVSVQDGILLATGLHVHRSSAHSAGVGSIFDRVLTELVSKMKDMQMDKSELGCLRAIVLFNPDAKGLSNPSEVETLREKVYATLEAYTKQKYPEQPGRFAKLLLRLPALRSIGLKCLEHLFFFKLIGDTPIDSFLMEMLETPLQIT

[4] = target: T3, RXRβ (Mus musculus, UniProt P28704); assay: Co-transfection assay; type: cell-based; conditions: read-out: RXRβ Pot
T3 sequence (P28704 1-520): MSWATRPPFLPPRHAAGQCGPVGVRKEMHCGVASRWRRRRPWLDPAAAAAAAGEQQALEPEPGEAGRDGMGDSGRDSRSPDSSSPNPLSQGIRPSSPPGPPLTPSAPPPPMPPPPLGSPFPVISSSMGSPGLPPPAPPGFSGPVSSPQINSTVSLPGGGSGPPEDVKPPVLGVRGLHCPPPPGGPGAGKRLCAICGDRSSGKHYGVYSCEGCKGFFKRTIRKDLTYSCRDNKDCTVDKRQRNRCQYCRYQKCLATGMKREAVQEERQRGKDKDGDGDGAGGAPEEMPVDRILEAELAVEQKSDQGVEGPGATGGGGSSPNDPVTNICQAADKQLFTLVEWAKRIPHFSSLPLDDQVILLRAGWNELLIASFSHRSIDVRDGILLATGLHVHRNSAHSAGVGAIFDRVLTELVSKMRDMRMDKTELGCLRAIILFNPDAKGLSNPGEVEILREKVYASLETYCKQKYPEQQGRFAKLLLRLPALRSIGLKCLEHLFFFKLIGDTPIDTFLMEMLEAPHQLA

[5] = target: T4, RARα (Homo sapiens, UniProt P10276); assay: Co-transfection assay; type: cell-based; conditions: read-out: RARα Pot
T4 sequence (P10276 1-462): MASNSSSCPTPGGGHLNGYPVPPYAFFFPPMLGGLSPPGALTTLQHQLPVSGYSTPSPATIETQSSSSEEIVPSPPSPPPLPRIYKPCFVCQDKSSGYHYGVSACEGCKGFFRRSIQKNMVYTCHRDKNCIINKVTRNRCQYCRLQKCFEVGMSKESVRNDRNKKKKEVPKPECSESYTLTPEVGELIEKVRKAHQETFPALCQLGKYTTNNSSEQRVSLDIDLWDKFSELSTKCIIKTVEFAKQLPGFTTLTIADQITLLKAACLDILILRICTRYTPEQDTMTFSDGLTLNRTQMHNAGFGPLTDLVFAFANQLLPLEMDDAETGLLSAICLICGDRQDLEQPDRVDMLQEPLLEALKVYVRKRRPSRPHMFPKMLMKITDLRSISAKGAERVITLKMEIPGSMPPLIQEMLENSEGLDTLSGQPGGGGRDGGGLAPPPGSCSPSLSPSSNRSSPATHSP

[6] = target: T4, RARα; assay: Receptor binding (competition with tritiated retinoids); conditions: from IC50 by Cheng-Prussof equation
[7] = target: T5, RARγ (Homo sapiens, UniProt P13631); assay: Co-transfection assay; type: cell-based; conditions: read-out: RARγ Pot
T5 sequence (P13631 1-454): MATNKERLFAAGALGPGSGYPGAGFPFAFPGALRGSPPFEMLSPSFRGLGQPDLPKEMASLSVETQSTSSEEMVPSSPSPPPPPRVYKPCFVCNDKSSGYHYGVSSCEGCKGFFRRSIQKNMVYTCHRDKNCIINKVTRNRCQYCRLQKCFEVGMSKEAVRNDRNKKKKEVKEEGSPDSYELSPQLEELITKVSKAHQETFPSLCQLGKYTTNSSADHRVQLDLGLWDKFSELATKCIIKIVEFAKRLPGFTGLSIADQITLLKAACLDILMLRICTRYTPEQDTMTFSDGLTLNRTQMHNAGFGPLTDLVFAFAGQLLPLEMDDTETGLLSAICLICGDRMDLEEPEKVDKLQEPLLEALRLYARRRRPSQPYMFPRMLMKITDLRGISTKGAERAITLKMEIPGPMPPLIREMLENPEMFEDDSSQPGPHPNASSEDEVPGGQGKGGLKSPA

[8] = target: T6, RXRα (Homo sapiens, UniProt P19793); assay: Co-transfection assay; type: cell-based; conditions: read-out: RXRα Pot
T6 sequence (P19793 1-462): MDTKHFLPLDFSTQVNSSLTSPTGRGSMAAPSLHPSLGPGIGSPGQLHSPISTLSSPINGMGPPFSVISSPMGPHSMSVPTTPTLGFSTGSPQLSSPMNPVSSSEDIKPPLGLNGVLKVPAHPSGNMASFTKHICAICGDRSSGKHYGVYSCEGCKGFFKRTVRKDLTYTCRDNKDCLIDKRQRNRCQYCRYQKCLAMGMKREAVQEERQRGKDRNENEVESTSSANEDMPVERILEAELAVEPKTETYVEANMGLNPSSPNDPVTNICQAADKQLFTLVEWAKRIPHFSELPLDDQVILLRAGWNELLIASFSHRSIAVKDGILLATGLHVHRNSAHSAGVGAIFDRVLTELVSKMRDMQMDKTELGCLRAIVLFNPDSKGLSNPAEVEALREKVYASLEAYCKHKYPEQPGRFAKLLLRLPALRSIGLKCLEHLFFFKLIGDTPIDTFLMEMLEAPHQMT

[9] = test system: AML-193 cell line; assay: Viability (tetrazolium dye, MTS); type: cell-based; conditions: Homo sapiens, 96 hours, mitochondrial function / viability
[10] = test system: ME 180 cell line; assay: Viability (tetrazolium dye, MTS); type: cell-based; conditions: Homo sapiens, 96 hours, mitochondrial function / viability
[11] = test system: RPMI 8226 cell line; assay: Viability (tetrazolium dye, MTS); type: cell-based; conditions: Homo sapiens, 96 hours, mitochondrial function / viability

Row | Molecule | EC50 [2] [µM] | EC50 [3] [µM] | EC50 [4] [µM] | EC50 [5] [µM] | EC50 [7] [µM] | EC50 [8] [µM] | further results
1 | CCOC(=O)/C=C(C)/C=C/C=C(/C)c1cc(C(C)(C)C)cc(C(C)(C)C)c1 [Compound 8, Ethyl (2E,4E, 6Z)-7-(3,5-di-t-butylphenyl)-3-methylocta-2,4,6-trienoate] | – | – | – | – | – | – | IC80 [1]: 0.152 µM
2 | COc1ccc(/C(C)=C/C=C/C(C)=C/C(=O)O)cc1OC [A, (2E,4E,6E)-3-methyl-7-(3,4-dimethoxyphenyl)octa-2,4,6-trienoic acid, reference compound] | 1.48 | > 10 | > 10 | > 10 | > 10 | > 10 | Kd [6]: 0.312 µM
3 | COc1cc(C)c(/C=C/C=C/C=C(\C)C(=O)O)c(C)c1C [C, (2E,4E,6E)-2-methyl-7-(2,3,6-trimethyl-4-methoxyphenyl)hepta-2,4,6-trienoic acid, reference compound] | > 10 | > 10 | > 10 | > 10 | > 10 | > 10 | –
4 | C/C(=C/C=C/C(C)=C/C(=O)O)c1cc(C(C)C)cc(C(C)C)c1 [Compound 43, (2E, 4E, 6Z)-7-(3,5-Di-isopropylphenyl)-3-methylocta-2,4,6-trienoic acid] | 0.022 | 0.019 | 0.027 | 0.065 | 0.016 | 0.027 | –
5 | CCOC(=O)/C=C(C)/C=C/C=C(\C)c1cc(C(C)(C)C)cc(C(C)(C)C)c1 [Compound 7, Ethyl (2E, 4E, 6E)-7-(3,5-di-t-butylphenyl)-3-methylocta-2,4,6-trienoate] | – | – | – | – | – | – | IC80 [1]: 0.00473 µM
6 | CC(/C=C/C=C1\CCOc2c1cc(C(C)(C)C)cc2C(C)(C)C)=C\C(=O)O [Compound 39, (2E,4E,6E)-6-(6,8,-Di-t-butylchroman-4-ylidene)-3-methylhexa-2,4,6-trienoic acid] | 0.003 | > 10 | > 10 | 0.005 | 0.003 | > 10 | –
7 | COC(/C=C/C=C(\C)c1ccc(C(C)(C)C)cc1)=C/C(=O)O [D, (2E,4E,6E)-3-methoxy-7-(4-t-butylphenyl)octa-2,4,6-trienoic acid, reference compound] | > 10 | > 10 | > 10 | > 10 | > 10 | > 10 | –
8 | CCC/C(=C/C=C/C(C)=C/C(=O)O)c1cc(C(C)(C)C)cc(C(C)(C)C)c1 [Compound 28, (2E, 4E, 6Z)-7-(3,5-di-t-butylphenyl)-3-methyldeca-2,4,6-trienoic acid] | > 10 | 0.05 | 0.104 | > 10 | > 10 | 0.02 | –
9 | CC(/C=C/C=C(\C)c1cc(C(F)(F)F)cc(C(F)(F)F)c1)=C\C(=O)O [Compound 41, (2E, 4E, 6E)-7-(3,5-Di-trifluoromethylphenyl)-3-methylocta-2,4,6-trienoic acid] | 0.001 | 2.18 | 0.266 | 0.003 | 0.004 | 2.01 | –
10 | COc1c(C(C)(C)C)cc(/C(C)=C/C=C/C(C)=C/C(=O)O)cc1C(C)(C)C [Compound 47, (2E, 4E, 6E) -3-Methyl-7-(3,5-di-t-butyl-4-methoxyphenyl)octa-2,4,6-trienoic acid] | 0.001 | > 10 | > 10 | > 10 | 0.001 | > 10 | –
11 | (2E,4E,6Z)-3-Methyl-7-(3,4-diethyl-6-methylphenyl)nona-2,4,6-trienoic acid [Compound 54] | – | – | – | – | – | – | EC50 ([2]; CV-1 cells, pRShRARβ, D-MTV-LUC reporter, 40 hours, potency = EC50): 0.13 µM; EC50 ([3]; CV-1 cells, pRSmRXRγ, CRBPIIFKLUC reporter, 40 hours, potency = EC50): 0.078 µM; EC50 ([4]; CV-1 cells, pRSmRXRβ, CRBPIIFKLUC reporter, 40 hours, potency = EC50): 0.028 µM; EC50 ([5]; CV-1 cells, pRShRARα, D-MTV-LUC reporter, 40 hours, potency = EC50): > 10 µM; EC50 ([7]; CV-1 cells, pRShRARγ, D-MTV-LUC reporter, 40 hours, potency = EC50): 0.32 µM; EC50 ([8]; CV-1 cells, pRShRXRα, CRBPIIFKLUC reporter, 40 hours, potency = EC50): 0.058 µM
12 | CC1=C(/C=C/C(C)=C/C=C/C(C)=C/C(=O)O)C(C)(C)CCC1 [ATRA, all-trans retinoic acid, reference compound] | – | – | – | – | – | – | IC50 [9]: 1 µM; IC50 [10]: 0.89 µM; IC50 [11]: 0.756 µM
13 | COc1ccc(/C(C)=C/C=C/C(C)=C/C(=O)O)cc1 [B, (2E,4E,6E)-3-methyl-7-(4-methoxyphenyl)octa-2,4,6-trienoic acid, reference compound] | > 10 | > 10 | > 10 | > 10 | > 10 | > 10 | –

From patent EP0800503B1, “NOVEL TRIENOIC RETINOID COMPOUNDS AND METHODS” (LIGAND PHARMACEUTICALS, INC., priority 1994, dated 1996)
